# According to ChEMBL document CHEMBL5113463, “Discovery and preclinical evaluations of JBD0131, a novel nitrodihydro-imidazooxazole anti-tuberculosis agent” (Bioorg Med Chem Lett, 2022):
# pIC50: −log10 of the molar value. Activity calls are given as the source filed them. The calls are words filed in the database; no cut-off is given here.
# Assays:
# [1] = tested on: Mycobacterium tuberculosis; experiment: Antimycobacterial activity against Mycobacterium tuberculosis H37Rv assessed as bacterial growth inhibition incubated for 7 days by MABA assay; format: functional; conditions: 168 h, time 7 day
# [2] = Cytotoxicity against African green monkey vero cells assessed as reduction in cell viability; format: toxicity, cell-based; conditions: chlorocebus sabaeus
# [3] = Volume of distribution in CD-1 mouse at 0.6 mg/kg, iv; format: ADME, organism-based; conditions: in vivo
# [4] = Half life in CD-1 mouse at 0.6 mg/kg, iv; format: ADME, organism-based; conditions: in vivo
# [5] = Cmax in CD-1 mouse at 5 mg/kg, po; format: ADME, organism-based; set-up: dose 5 mg/kg, route po; conditions: in vivo
# [6] = AUC (0-last) in CD-1 mouse at 5 mg/kg, po; format: ADME, organism-based; set-up: dose 5 mg/kg, route po; conditions: in vivo; for AUClast: mouse
# [7] = Oral bioavailability in CD-1 mouse at 5 mg/kg; format: ADME, organism-based; conditions: in vivo; for F: mouse, po, 5 mg/kg
# [8] = Clearance in CD-1 mouse at 0.6 mg/kg, iv; format: ADME, organism-based; conditions: in vivo
# [9] = tested on: Mycobacterium tuberculosis; experiment: Antimycobacterial activity against clinical isolate drug susceptible Mycobacterium tuberculosis H37Rv assessed as bacterial growth inhibition; format: functional
# [10] = tested on: Mycobacterium tuberculosis; experiment: In vivo antimycobacterial activity against Mycobacterium tuberculosis Erdman infected mouse acute tuberculosis infection model assessed as reduction lung bacterial load by measuring CFU at 15 mg/kg for 3 weeks at 5 days/week; format: functional, organism-based
# [11] = Metabolic stability in human liver microsomes assessed as half life; format: ADME, Microsome
# [12] = Metabolic stability in rat liver microsomes assessed as half life; format: ADME, Microsome
# [13] = Metabolic stability in mouse liver microsomes assessed as half life; format: ADME, Microsome
# [14] = tested on: Mycobacterium tuberculosis; experiment: Antimycobacterial activity against Mycobacterium tuberculosis H37Rv assessed as bacterial growth inhibition incubated for 10 days under hypoxic condition followed by 28 hrs incubation under normoxic condition by Low-Oxygen-Recovery Assay; format: functional; conditions: 264 h, time 11 day
# [15] = Apparent permeability across apical to basolateral side in dog MDCK cells; format: ADME, cell-based, Canis lupus familiaris
# [16] = Plasma protein binding in mouse assessed as bound fraction; format: ADME, cell-free; conditions: read-out: PPB (converted)
# [17] = Plasma protein binding in rat assessed as bound fraction; format: ADME, cell-free; conditions: read-out: PPB (converted)
# [18] = Plasma protein binding in dog assessed as bound fraction; format: ADME, cell-free, Canis lupus familiaris; conditions: read-out: PPB (converted)
# [19] = Plasma protein binding in human assessed as bound fraction; format: ADME, cell-free; conditions: read-out: PPB (converted)
# Cytochrome P450 1A2 = molecular target: T1, Cytochrome P450 1A2 (Homo sapiens, UniProt P05177); experiment: Inhibition of CYP1A2 (unknown origin); format: ADME
# T1 sequence (P05177 whole entry): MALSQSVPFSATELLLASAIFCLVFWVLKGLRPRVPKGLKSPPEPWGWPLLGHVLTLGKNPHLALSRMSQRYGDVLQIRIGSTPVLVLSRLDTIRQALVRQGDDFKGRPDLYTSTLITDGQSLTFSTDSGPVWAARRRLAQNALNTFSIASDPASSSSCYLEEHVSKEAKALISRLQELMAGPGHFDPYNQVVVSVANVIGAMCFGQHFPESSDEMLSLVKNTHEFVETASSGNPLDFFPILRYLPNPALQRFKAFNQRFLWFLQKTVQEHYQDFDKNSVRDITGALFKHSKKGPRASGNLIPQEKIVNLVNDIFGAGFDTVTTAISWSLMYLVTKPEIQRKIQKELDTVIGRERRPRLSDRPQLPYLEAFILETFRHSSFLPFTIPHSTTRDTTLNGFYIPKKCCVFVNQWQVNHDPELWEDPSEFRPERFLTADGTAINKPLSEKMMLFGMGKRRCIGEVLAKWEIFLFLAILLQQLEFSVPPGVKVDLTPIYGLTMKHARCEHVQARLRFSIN
# Cytochrome P450 2B6 = molecular target: T2, Cytochrome P450 2B6 (Homo sapiens, UniProt P20813); experiment: Inhibition of CYP2B6 (unknown origin); format: ADME
# T2 sequence (P20813 whole entry): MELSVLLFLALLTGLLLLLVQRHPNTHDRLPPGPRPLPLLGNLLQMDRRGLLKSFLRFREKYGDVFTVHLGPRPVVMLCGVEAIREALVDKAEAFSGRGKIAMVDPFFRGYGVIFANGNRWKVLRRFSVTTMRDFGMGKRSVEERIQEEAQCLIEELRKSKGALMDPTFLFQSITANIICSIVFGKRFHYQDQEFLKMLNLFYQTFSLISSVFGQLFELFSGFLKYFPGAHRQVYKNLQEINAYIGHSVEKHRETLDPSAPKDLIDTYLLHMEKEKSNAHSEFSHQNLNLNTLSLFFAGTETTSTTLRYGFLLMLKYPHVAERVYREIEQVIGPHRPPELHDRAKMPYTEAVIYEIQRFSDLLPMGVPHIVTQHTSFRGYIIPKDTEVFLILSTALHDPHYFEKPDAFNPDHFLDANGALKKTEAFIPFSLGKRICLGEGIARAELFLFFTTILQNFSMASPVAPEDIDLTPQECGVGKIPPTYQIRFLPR
# Cytochrome P450 2C8 = molecular target: T3, Cytochrome P450 2C8 (Homo sapiens, UniProt P10632); experiment: Inhibition of CYP2C8 (unknown origin); format: ADME
# T3 sequence (P10632 whole entry): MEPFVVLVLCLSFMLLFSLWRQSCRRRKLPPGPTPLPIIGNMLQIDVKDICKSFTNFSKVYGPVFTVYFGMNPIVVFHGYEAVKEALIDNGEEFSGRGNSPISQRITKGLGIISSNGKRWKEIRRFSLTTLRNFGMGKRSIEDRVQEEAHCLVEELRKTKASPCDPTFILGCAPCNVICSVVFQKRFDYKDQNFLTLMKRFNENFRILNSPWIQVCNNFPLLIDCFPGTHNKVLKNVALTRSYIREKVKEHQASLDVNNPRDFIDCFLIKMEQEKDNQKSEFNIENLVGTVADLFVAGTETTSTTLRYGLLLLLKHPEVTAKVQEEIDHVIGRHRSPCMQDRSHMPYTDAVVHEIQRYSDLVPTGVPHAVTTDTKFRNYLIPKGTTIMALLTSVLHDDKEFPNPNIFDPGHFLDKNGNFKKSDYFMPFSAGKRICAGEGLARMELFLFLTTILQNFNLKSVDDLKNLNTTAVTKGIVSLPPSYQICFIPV
# Cytochrome P450 2C9 = Cytochrome P450 2C9 (Homo sapiens, UniProt P11712); experiment: Inhibition of CYP2C9 (unknown origin); format: ADME
# Cytochrome P450 2C19 = Cytochrome P450 2C19 (Homo sapiens, UniProt P33261); experiment: Inhibition of CYP2C19 (unknown origin); format: ADME
# Cytochrome P450 2D6 = Cytochrome P450 2D6 (Homo sapiens, UniProt P10635); experiment: Inhibition of CYP2D6 (unknown origin); format: ADME
# Cytochrome P450 3A4 = Cytochrome P450 3A4 (Homo sapiens, UniProt P08684); experiment: Inhibition of CYP3A4 (unknown origin); format: ADME
# [20] = molecular target: Voltage-gated inwardly rectifying potassium channel KCNH2 (Homo sapiens, UniProt Q12809); experiment: Inhibition of human ERG; format: toxicity
# [21] = tested on: Mycobacterium tuberculosis; experiment: Antimycobacterial activity against Mycobacterium tuberculosis Erdman assessed as bacterial growth inhibition; format: functional
# [22] = tested on: Mycobacterium tuberculosis; experiment: In vivo antimycobacterial activity against Mycobacterium tuberculosis Erdman infected mouse acute tuberculosis infection model assessed as reduction lung bacterial loads by measuring CFU at 10 to 100 mg/kg for 3 weeks at 5 days/week; format: functional, organism-based; conditions: dose 10-100 mg/kg, DDE = dose-dependent effect
# [23] = tested on: Mycobacterium tuberculosis; experiment: In vivo antimycobacterial activity against Mycobacterium tuberculosis Erdman infected mouse chronic tuberculosis infection model assessed as reduction log10 CFU at 10 to 100 mg/kg for 4 weeks at 5 days/week administered after 31 days post infection relative to control; format: functional; conditions: dose 10-100 mg/kg
# [24] = molecular target: Voltage-dependent L-type calcium channel subunit alpha-1C (Homo sapiens, UniProt Q13936); experiment: Inhibition of human Cav1.2
# [25] = molecular target: T4, A-type voltage-gated potassium channel KCND3 (Homo sapiens, UniProt Q9UK17); experiment: Inhibition of Kv4.3 (unknown origin)
# T4 sequence (Q9UK17 whole entry): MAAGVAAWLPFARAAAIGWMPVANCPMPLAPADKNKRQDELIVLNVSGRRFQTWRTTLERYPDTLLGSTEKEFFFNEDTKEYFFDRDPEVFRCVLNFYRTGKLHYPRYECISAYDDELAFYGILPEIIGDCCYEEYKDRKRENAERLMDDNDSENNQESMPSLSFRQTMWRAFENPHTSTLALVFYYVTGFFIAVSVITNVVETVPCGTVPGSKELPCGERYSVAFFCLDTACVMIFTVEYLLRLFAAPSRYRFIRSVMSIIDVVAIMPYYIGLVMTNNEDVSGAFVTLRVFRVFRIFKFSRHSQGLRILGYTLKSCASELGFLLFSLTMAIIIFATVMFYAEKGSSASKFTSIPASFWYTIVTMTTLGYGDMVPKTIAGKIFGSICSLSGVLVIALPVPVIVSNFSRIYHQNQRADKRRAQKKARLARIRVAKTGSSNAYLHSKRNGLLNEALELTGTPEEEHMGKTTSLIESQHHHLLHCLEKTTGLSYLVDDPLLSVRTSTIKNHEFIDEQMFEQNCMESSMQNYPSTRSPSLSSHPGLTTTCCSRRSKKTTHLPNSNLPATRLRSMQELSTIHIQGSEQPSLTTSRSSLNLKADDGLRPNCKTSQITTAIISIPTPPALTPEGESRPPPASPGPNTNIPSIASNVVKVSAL
# [26] = molecular target: Sodium channel protein type 5 subunit alpha (Homo sapiens, UniProt Q14524); experiment: Inhibition of NaV 1.5 (unknown origin)
# [27] = Half life in Sprague-Dawley rat at 1 mg/kg, iv; format: ADME, organism-based; conditions: in vivo
# [28] = Cmax in Sprague-Dawley rat at 4 mg/kg, po; format: ADME, organism-based; set-up: dose 4 mg/kg, route po; conditions: in vivo
# [29] = AUC (0-last) in Sprague-Dawley rat at 4 mg/kg, po; format: ADME, organism-based; conditions: in vivo
# [30] = Half life in Beagle dog at 0.5 mg/kg, iv; format: ADME, organism-based, Canis lupus familiaris; conditions: in vivo
# [31] = Cmax in Beagle dog at 2 mg/kg, po; format: ADME, organism-based, Canis lupus familiaris; set-up: dose 2 mg/kg, route po; conditions: in vivo
# [32] = AUC (0-last) in Beagle dog at 2 mg/kg, po; format: ADME, organism-based, Canis lupus familiaris; conditions: in vivo
# Sequence of Voltage-gated inwardly rectifying potassium channel KCNH2 (Q12809 whole entry): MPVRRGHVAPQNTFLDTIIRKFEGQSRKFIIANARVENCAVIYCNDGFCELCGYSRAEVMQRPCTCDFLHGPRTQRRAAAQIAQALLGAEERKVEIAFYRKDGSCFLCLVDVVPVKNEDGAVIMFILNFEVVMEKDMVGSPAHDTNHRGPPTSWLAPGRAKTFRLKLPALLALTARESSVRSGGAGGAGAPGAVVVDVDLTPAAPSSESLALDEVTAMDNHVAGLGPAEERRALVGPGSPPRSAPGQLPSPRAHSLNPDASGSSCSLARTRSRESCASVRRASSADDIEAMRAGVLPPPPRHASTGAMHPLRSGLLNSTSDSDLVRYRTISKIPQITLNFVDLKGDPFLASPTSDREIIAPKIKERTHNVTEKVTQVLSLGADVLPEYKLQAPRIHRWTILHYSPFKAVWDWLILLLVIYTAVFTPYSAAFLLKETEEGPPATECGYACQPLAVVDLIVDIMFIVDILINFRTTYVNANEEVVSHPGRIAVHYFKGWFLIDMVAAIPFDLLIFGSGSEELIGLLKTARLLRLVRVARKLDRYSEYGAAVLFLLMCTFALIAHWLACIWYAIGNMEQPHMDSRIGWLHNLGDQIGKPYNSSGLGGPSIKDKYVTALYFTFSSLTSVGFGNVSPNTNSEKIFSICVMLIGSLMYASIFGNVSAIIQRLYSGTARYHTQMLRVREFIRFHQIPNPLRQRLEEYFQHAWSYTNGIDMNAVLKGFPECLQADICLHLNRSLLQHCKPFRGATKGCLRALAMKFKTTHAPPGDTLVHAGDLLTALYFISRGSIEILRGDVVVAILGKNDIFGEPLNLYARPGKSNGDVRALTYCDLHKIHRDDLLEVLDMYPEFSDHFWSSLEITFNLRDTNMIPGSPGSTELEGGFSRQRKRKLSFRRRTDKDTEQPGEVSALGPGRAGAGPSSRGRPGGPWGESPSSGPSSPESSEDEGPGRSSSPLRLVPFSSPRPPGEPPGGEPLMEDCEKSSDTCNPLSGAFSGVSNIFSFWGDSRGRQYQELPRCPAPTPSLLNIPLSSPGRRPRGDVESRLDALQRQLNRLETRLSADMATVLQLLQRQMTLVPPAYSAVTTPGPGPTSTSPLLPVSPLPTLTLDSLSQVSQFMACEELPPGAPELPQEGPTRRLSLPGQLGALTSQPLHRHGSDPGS
# Sequence of Voltage-dependent L-type calcium channel subunit alpha-1C (Q13936 whole entry): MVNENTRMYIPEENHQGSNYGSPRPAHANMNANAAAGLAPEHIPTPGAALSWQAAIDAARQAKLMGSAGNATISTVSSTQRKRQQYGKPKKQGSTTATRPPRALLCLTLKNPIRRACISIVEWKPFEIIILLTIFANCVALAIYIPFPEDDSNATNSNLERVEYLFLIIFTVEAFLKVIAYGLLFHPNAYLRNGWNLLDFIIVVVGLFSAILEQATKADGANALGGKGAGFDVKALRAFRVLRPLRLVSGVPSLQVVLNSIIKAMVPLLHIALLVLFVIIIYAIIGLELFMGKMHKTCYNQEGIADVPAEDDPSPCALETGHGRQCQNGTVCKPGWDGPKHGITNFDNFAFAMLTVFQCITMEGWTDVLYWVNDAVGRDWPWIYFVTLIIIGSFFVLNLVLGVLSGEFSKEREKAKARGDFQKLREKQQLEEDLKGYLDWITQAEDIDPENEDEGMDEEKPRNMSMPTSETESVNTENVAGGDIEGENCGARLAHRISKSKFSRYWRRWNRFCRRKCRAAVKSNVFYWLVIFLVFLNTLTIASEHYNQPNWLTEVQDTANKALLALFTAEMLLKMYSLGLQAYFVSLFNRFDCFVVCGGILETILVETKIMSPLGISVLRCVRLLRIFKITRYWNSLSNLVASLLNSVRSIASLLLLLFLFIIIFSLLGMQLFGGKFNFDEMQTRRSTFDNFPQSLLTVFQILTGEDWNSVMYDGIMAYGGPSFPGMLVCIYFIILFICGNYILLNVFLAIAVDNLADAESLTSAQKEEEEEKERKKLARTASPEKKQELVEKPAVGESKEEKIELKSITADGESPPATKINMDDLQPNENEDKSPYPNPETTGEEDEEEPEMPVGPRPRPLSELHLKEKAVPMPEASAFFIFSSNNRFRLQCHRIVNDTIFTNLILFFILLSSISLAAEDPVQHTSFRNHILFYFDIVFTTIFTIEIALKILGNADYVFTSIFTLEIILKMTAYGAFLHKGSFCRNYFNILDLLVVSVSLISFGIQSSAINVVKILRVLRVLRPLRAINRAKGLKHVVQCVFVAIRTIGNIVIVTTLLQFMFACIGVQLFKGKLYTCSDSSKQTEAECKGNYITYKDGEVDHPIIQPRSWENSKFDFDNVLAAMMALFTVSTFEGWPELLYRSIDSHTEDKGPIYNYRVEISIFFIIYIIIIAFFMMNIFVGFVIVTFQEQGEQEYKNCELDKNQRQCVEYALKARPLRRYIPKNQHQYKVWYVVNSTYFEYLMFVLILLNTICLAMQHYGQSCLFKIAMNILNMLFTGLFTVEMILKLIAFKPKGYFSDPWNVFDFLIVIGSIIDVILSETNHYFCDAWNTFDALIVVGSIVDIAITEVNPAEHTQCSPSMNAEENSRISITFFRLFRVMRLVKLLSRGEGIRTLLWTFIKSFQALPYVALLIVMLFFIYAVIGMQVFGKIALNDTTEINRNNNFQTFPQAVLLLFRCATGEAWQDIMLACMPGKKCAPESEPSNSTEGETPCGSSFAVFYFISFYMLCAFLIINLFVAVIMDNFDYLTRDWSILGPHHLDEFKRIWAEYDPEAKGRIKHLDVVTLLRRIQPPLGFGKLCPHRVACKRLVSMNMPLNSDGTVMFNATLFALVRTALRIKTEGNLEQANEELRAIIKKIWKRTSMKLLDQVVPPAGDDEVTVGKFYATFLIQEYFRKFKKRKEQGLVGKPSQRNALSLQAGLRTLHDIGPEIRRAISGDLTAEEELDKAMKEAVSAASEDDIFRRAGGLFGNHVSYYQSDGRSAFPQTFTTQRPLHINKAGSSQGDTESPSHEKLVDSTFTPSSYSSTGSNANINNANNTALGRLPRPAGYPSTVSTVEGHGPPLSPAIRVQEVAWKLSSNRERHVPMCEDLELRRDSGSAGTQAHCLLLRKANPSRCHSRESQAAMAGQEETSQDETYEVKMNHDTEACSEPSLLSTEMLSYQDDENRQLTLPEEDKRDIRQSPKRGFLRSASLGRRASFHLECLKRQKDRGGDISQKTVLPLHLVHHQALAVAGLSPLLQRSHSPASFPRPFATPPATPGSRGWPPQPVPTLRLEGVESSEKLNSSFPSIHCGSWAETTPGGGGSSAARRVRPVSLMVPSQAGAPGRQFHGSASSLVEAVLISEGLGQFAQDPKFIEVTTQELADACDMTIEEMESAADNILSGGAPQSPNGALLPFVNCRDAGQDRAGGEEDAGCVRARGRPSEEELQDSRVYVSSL
# Sequence of Cytochrome P450 2D6 (P10635 whole entry): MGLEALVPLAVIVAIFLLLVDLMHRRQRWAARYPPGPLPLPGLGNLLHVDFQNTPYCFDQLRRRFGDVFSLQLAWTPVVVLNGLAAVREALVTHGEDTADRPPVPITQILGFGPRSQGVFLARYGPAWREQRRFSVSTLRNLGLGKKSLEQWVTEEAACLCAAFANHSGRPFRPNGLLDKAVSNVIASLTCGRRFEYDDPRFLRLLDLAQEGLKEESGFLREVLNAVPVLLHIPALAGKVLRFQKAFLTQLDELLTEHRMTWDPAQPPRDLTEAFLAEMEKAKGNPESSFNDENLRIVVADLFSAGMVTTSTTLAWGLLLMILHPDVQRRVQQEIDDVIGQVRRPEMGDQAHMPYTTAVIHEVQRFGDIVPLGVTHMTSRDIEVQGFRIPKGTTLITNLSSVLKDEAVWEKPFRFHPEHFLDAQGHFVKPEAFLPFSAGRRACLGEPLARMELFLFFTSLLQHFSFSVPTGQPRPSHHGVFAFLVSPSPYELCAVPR
# Sequence of Cytochrome P450 2C19 (P33261 whole entry): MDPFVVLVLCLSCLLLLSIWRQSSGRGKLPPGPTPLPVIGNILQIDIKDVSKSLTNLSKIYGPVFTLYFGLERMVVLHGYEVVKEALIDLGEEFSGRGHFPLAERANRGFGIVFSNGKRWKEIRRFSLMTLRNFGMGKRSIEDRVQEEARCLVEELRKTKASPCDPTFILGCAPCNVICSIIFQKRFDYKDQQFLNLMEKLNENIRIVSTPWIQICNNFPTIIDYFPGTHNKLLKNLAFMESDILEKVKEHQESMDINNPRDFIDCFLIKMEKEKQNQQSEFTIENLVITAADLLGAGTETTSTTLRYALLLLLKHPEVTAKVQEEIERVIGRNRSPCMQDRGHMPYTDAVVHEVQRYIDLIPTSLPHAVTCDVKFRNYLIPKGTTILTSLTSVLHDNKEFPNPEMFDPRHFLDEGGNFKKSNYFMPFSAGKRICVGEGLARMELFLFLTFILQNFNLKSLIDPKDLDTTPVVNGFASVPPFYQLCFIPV
# Sequence of Cytochrome P450 3A4 (P08684 whole entry): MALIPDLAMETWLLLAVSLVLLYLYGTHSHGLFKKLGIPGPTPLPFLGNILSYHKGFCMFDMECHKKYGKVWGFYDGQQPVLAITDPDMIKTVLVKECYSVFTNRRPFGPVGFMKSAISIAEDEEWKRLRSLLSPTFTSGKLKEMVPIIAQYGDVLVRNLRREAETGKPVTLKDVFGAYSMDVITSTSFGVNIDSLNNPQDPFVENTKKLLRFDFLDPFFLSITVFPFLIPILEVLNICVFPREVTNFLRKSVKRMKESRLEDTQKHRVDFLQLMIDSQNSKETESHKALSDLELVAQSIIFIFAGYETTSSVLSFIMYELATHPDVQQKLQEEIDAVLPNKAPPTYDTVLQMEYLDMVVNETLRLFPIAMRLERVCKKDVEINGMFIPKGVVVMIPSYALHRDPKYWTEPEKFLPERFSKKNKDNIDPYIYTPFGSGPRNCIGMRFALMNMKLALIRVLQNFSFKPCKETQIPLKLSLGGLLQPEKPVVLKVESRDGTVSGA
structure (smiles),measurement,setting,value
C[C@]1(CN2Cc3nc(-c4ccc(F)cc4F)sc3C2)Cn2cc([N+](=O)[O-])nc2O1,MIC,[1],< 0.013 µg/mL
same,CC50,[2],> 32 µg/mL
same,Vd,[3],2.66 L/kg
same,half-life,[4],185 min
same,Cmax,[5],182 ng/mL
same,AUClast,[6],1789 ng·h/mL
same,F,[7],9.6%
Cc1cc(F)ccc1-c1nc2c(s1)CN(C[C@@]1(C)Cn3cc([N+](=O)[O-])nc3O1)C2,MIC,[1],< 0.013 µg/mL
same,CC50,[2],> 32 µg/mL
same,Vd,[3],3.38 L/kg
same,half-life,[4],124 min
same,Cmax,[5],201 ng/mL
same,AUClast,[6],1441 ng·h/mL
same,F,[7],20.5%
C[C@]1(CN2Cc3nc(-c4ccc(F)cn4)sc3C2)Cn2cc([N+](=O)[O-])nc2O1,MIC,[1],0.03 µg/mL
same,CC50,[2],> 32 µg/mL
same,clearance,[8],12.7 mL/min/kg
same,Vd,[3],2.02 L/kg
same,half-life,[4],103 min
same,Cmax,[5],385 ng/mL
same,AUC(0-t),"[6]; CD-1, mouse",2920 ng·h/mL
same,bioavailability,"[7]; CD-1, mouse",24.5%
CO[C@H]1/C=C/O[C@@]2(C)Oc3c(C)c(O)c4c(O)c(c(/C=N/N5CCN(C)CC5)c(O)c4c3C2=O)NC(=O)/C(C)=C\C=C\[C@H](C)[C@H](O)[C@@H](C)[C@@H](O)[C@@H](C)[C@H](OC(C)=O)[C@@H]1C [RIFAMPIN],MIC50,[9],0.035 µg/mL
same,MIC90,[9],0.064 µg/mL
same,Activity,[10],Active
C[C@]1(COc2ccc(N3CCC(Oc4ccc(OC(F)(F)F)cc4)CC3)cc2)Cn2cc([N+](=O)[O-])nc2O1,half-life,[11],84 min
same,half-life,[12],> 145 min
same,half-life,[13],> 145 min
same,MIC,[1],0.006 µg/mL
same,MIC,[14],0.61 µg/mL
same,CC50,[2],> 32 µg/mL
same,Papp A→B,[15],0.09 ×10⁻⁶ cm/s
same,fraction unbound,[16],0.005
same,fraction unbound,[17],0.004
same,fraction unbound,[18],0.005
same,fraction unbound,[19],0.005
same,pIC50,Cytochrome P450 1A2,< 4.00
same,pIC50,Cytochrome P450 2B6,< 4.00
same,pIC50,Cytochrome P450 2C8,< 4.00
same,pIC50,Cytochrome P450 2C9,< 4.00
same,pIC50,Cytochrome P450 2C19,< 4.00
same,pIC50,Cytochrome P450 2D6,< 4.00
same,pIC50,Cytochrome P450 3A4,< 4.00
same,pIC50,[20],< 4.52
same,MIC50,[9],0.002 µg/mL
same,MIC90,[9],0.004 µg/mL
same,MIC,[21],0.015 µg/mL
same,Activity,[22],Dde
same,Activity,[23],1 log10CFU
C[C@]1(CN2Cc3nc(-c4ccc(F)cc4)sc3C2)Cn2cc([N+](=O)[O-])nc2O1,pIC50,[20],5.77
same,pIC50,[24],4.88
same,pIC50,[25],< 4.40
same,pIC50,[26],4.89
same,half-life,[27],279 min
same,Cmax,[28],57.9 nM
same,AUClast,[29],574 ng·h
same,half-life,[30],918 min
same,Cmax,[31],5.82 nM
same,AUClast,[32],166 ng·h
NNC(=O)c1ccncc1 [ISONIAZID],MIC50,[9],0.024 µg/mL
same,MIC90,[9],0.034 µg/mL
